According to patent publication US20230082130A1, “USE OF C[…] TO TREAT OR PREVENT FUNGAL GROWTH OF C. ALBICANS” (Demetrix, Inc., priority 2021, published 2023):
≈ marks a conversion by molar mass, not a printed value. Where two headings read alike, the source gives them in different places.

Tested on: C. albicans
Test: minimum inhibitory concentration (MIC) assay against C. albicans
Format: cell-based, Candida albicans
Details: growth inhibition of C. albicans, assay performed by Charles River Laboratories
Procedure: To determine the ability of the cannabinoid compounds described herein to reduce, inhibit, or eliminate, C. albicans a minimum inhibitory concentration (“MIC”) assay was performed. […] The assay was performed by Charles River Laboratories International (Wilmington, Mass.) in accordance with industry standards.

[1] = Candida albicans, read-out: MIC

Molecule | MIC [1] [µg/mL] | MIC [µg/mL] | MIC (Candida albicans) [µg/mL]
CCCCCc1cc(O)c2c(c1)OC1(C)CCC3C1C2C3(C)C (centres unmarked) [CBL, cannabicyclol] | > 200 | >200 | 
CCCCCc1cc(O)c2c(c1)OC(C)(CCC=C(C)C)C=C2 (centres unmarked) [CBC, cannabichromene] | > 200 | >200 | 
C=C(C)[C@@H]1CCC(C)=C[C@H]1c1c(O)cc(CCCCC)c(C(=O)O)c1O [CBDA, cannabidiolic acid] | > 200 | >200 | 
CCCCc1cc(O)c(CC=C(C)CCC=C(C)C)c(O)c1 [CBG-C4, cannabigerol butyl] |  | 200 (≈ 661 µM) | 
C=C(C)[C@@H]1CCC(C)=C[C@H]1c1c(O)cc(CCCCC)cc1O [CBD, cannabidol] |  | 200 (≈ 636 µM) | 
CCCCCc1cc(O)c(C/C=C(\C)CCC=C(C)C)c(O)c1 [CBG, cannabigerol] | > 200 | >200 | 
C=C(C)[C@@H]1CCC(C)=C[C@H]1c1c(O)cc(CCC)cc1O [CBDV, cannabidivarin] |  |  | < 25
C=C(C)[C@@H]1CCC(C)=C[C@H]1c1c(O)cc(CCC)c(C(=O)O)c1O [CBDVA, cannabidivarinic acid] |  | >200 | 
CCCCCc1cc(O)c2c(c1)OC(C)(C)c1ccc(C)cc1-2 [CBN, cannabinol] | > 200 | >200 | 
CCCc1cc(O)c(C/C=C(\C)CCC=C(C)C)c(O)c1C(=O)O [CBGVA, cannabigerovarinic acid] |  | >200 | 
CCCCCc1cc2c(c(O)c1C(=O)O)C=CC(C)(CCC=C(C)C)O2 (centres unmarked) [CBCA, cannabichromenic acid] |  | >200 | 
CCCCCc1cc(O)c(C/C=C(\C)CCC=C(C)C)c(O)c1C(=O)O [CBGA, cannabigerolic acid] | > 200 | >200 | 
CCCCCc1cc2c(c(O)c1C(=O)O)-c1cc(C)ccc1C(C)(C)O2 [CBNA, cannabinolic acid] |  | >200 | 
(+)-cannabidiol [(+)-CBD] |  | >200 | 
CCCCc1cc(O)c(C/C=C(\C)CCC=C(C)C)c(O)c1C(=O)O [CBGA-C4, cannabigerolic acid butyl] |  | >200 | 
CCCCCc1cc2c(c(O)c1C(=O)O)C1C3C(CCC3(C)O2)C1(C)C (centres unmarked) [CBLA, cannabicyclolic acid] |  | >200 | 
CCCc1cc(O)c(C/C=C(\C)CCC=C(C)C)c(O)c1 [CBGV, cannabigerivarin] |  | 50 (≈ 173 µM) | 
